The values below come from US20240150370A1, “BICYCLIC PYRIDINE DERIVATIVE” (Sumitomo Pharma Co., Ltd., priority 0001, published 2024).

Where a name gives a salt, the structure may show the parent alone. Read-outs that look alike come from different tables or passages of the source.

The assay concerns the target human TAAR1 receptor (Homo sapiens (Human), UniProt Q96RJ0). The experiment in a line: Evaluation of agonist activity on human TAAR1 receptor (cAMP assay). To be noted: CHO, 0.5 h, read-out: TAAR1 agonist activity at each concentration (%). It counts as cell-based. As to the method: TAAR1 is a G protein-coupled receptor that binds to G proteins (Gas), and activation of the TAAR1 receptor by agonists induces an increase in intracellular cAMP levels. Therefore, the agonist activity of the sample on the human TAAR1 receptor was evaluated using the cAMP assay method.
cAMP Hunter™ CHO-K1 TAAR1 Gs Cell Line, a cell expressing human TAAR1 receptor, was purchased. Human TAAR1-expressing CHO cells were seeded in a 96-well plate, and after culturing for 24 hours, a sample dissolved in DMSO was added and incubated at 37° C. for 30 minutes. A sample for cAMP measurement was prepared according to the cAMPHiRange kit protocol. The amount of cAMP produced by the sample was measured by time-resolved fluorescence using EnVision (excitation wavelength: 330 nm, fluorescence wavelength […]/665 nm).
Sample %=100×{(Csamp)−(Cblank)}/{(Ctyramine)−(Cblank)} • Csamp: count of sample, Ctyramine: count of 100 μM tyramine, Cblank: count of blank
A general note: Cyclic AMP is a second messenger, typically raised through Gs and lowered through Gi signalling.

The mark [1] stands for this setting: 100 nM, cAMP in human TAAR1-expressing CHO cells, relative to 100 μM tyramine.
Setting [2] is: 1000 nM, cAMP in human TAAR1-expressing CHO cells, relative to 100 μM tyramine.
Where [3] appears, read: 10000 nM, cAMP in human TAAR1-expressing CHO cells, relative to 100 μM tyramine.

Chain of human TAAR1 receptor (Q96RJ0 whole entry, the tested form may be a part): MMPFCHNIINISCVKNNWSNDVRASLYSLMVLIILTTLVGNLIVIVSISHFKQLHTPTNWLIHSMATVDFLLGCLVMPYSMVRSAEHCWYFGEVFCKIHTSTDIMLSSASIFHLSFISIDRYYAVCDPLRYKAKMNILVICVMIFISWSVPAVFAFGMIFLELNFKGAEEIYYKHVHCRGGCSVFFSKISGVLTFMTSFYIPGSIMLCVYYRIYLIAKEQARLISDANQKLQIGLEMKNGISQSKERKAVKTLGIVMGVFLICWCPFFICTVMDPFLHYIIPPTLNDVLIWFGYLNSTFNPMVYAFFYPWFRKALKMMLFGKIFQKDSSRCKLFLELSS

For the compound `C[C@H]1Oc2cccnc2[C@@H]1C(C)(C)N` [Example 54], under setting [1], the activation at 0.1 µM is 15%. Under setting [2], the activation at 1 µM is 63%. In addition, the activation at 10 µM under setting [3] came out at 94%.

Consider `Cc1ccc(-c2ccnc3c2CCCC3CN)cc1` (racemic) [Example 89, rac-1-[4-(4-methylphenyl)-5,6,7,8-tetrahydroquinolin-8-yl]methanamine dihydrochloride], for which the activation at 0.1 µM under setting [1] is 0%. Moreover, under setting [2], the activation at 1 µM came to 23%. Under setting [3], the activation at 10 µM was 48%.

On to `CC(C)[C@H]1Oc2cccnc2[C@@H]1CN` (racemic) [Example 21], for which the activation at 0.1 µM under setting [1] worked out at 0%. Further, the activation at 1 µM under setting [2] is 23%. Besides, the activation at 10 µM under setting [3] came out at 81%.

Turning to `NC[C@H]1CCSc2cccnc21` (single isomer, unassigned) [Example 39, dihydrochloride], the activation at 0.1 µM under setting [1] is 1%. Besides, the activation at 1 µM under setting [2] is 12%. Moreover, the activation at 10 µM under setting [3] stood at 48%.

For the compound `C[C@@H]1Oc2cccnc2[C@@H]1CN` [Example 20], the activation at 0.1 µM under setting [1] came out at 33%. In addition, the activation at 1 µM under setting [2] was 88%. Moreover, the activation at 10 µM under setting [3] turned out to be 107%.

Take `C[C@@H]1C[C@@H](CN)c2ncc(F)cc2O1` [Example 66]: the activation at 0.1 µM under setting [1] was 21%. Moreover, the activation at 1 µM under setting [2] is 66%. In addition, the activation at 10 µM under setting [3] is 82%.

Regarding `NC[C@H]1c2ncc(Cl)cc2OC12CC2` (single isomer, unassigned) [Example 99, rel-1-[(3'S)-6′-chloro-3′H-spiro[cyclopropane-1,2′-furo[3,2-b]pyridine]-3′-yl]methanamine dihydrochloride], the activation at 0.1 µM under setting [1] is 9%. Besides, the activation at 1 µM under setting [2] is 39%. Further, the activation at 10 µM under setting [3] was 62%.

With `Cc1ccc2c(n1)[C@@H](CN)C[C@@H](C)O2` [Example 17], the activation at 0.1 µM under setting [1] amounted to 0%. The activation at 1 µM under setting [2] amounted to 4%. Further, under setting [3], the activation at 10 µM was determined as 25%.

Consider `Cc1ccc2c(n1)[C@@H](CN)C(C)(C)O2` (single isomer, unassigned) [Example 104, dihydrochloride], for which the activation at 0.1 µM under setting [1] is 0%. In addition, under setting [2], the activation at 1 µM came out at 5%. Also, under setting [3], the activation at 10 µM was found to be 31%.

Consider `C[C@H]1Oc2ccc(C(F)(F)F)nc2[C@@H]1CN` [Example 30], for which the activation at 0.1 µM under setting [1] came out at 2%. The activation at 1 µM under setting [2] stood at 18%. Besides, under setting [3], the activation at 10 µM is 63%.

For the compound `C[C@H]1C[C@@H](CN)c2ncccc2S1` (racemic) [Example 13], under setting [1], the activation at 0.1 µM came out at 4%. The activation at 1 µM under setting [2] worked out at 31%. Moreover, under setting [3], the activation at 10 µM worked out at 63%.

As for `NCC1CCNc2cccnc21` (stereo not drawn) [Example 68], the activation at 0.1 µM under setting [1] was 3%. Besides, the activation at 1 µM under setting [2] was 23%. For the same compound, the activation at 10 µM under setting [3] was 68%.

As for `C[C@H]1Oc2c(F)ccnc2[C@@H]1CN` [Example 59], the activation at 0.1 µM under setting [1] came to 19%. For the same compound, the activation at 1 µM under setting [2] amounted to 65%. Moreover, the activation at 10 µM under setting [3] was determined as 84%.

As for `C[C@H]1COc2cccnc2[C@@H]1CN` (racemic) [Example 1, rac-1-[(3R,4S)-3-methyl-3,4-dihydro-2H-pyrano[3,2-b]pyridin-4-yl]methanamine dihydrochloride], the activation at 0.1 µM under setting [1] came out at 2%. Moreover, the activation at 1 µM under setting [2] stood at 18%. Besides, the activation at 10 µM under setting [3] was 54%.

Regarding `CCNC[C@H]1c2ncccc2O[C@@H]1C` [Example 74], the activation at 0.1 µM under setting [1] was 7%. The activation at 1 µM under setting [2] worked out at 46%. For the same compound, the activation at 10 µM under setting [3] is 92%.

For the compound `Cc1ccnc2c1OCCC2CN` (stereo not drawn) [Example 70], under setting [1], the activation at 0.1 µM is 0%. Besides, the activation at 1 µM under setting [2] turned out to be 23%. Besides, the activation at 10 µM under setting [3] turned out to be 57%.

On to `C[C@H]1[C@H](C)Oc2cccnc2[C@H]1CN` (racemic) [Example 64], for which, under setting [1], the activation at 0.1 µM came out at 0%. In addition, the activation at 1 µM under setting [2] is 7%. Under setting [3], the activation at 10 µM stood at 40%.

For the compound `NC[C@H]1c2nc(F)ccc2OC12CC2` (single isomer, unassigned) [Example 103, rel-1-[(3'S)-5′-fluoro-3′H-spiro[cyclopropane-1,2′-furo[3,2-b]pyridine]-3′-yl]methanamine dihydrobromide], the activation at 0.1 µM under setting [1] stood at 60%. For the same compound, the activation at 1 µM under setting [2] worked out at 84%. Besides, the activation at 10 µM under setting [3] is 89%.

On to `NCC1c2ncccc2OCC12CC2` (stereo not drawn) [Example 69], for which the activation at 0.1 µM under setting [1] was 4%. In addition, the activation at 1 µM under setting [2] amounted to 30%. The activation at 10 µM under setting [3] was determined as 62%.

For the compound `C[C@@H]1C[C@H](CN)c2ncc(F)cc2O1` [Example 52], the activation at 0.1 µM under setting [1] is 1%. In addition, the activation at 1 µM under setting [2] worked out at 8%. Also, under setting [3], the activation at 10 µM came out at 48%.

On to `NCC1CCc2c(Cl)ccnc21` (stereo not drawn) [Example 75], for which the activation at 0.1 µM under setting [1] came out at 0%. Moreover, the activation at 1 µM under setting [2] came out at 26%. Further, under setting [3], the activation at 10 µM amounted to 75%.

In the case of `CC[C@H]1COc2cccnc2[C@@H]1CN` (racemic) [Example 86], the activation at 0.1 µM under setting [1] worked out at 1%. Also, the activation at 1 µM under setting [2] turned out to be 8%. For the same compound, under setting [3], the activation at 10 µM was 40%.

Turning to `CCOc1ccnc2c1CCC2CN` (stereo not drawn) [Example 76], under setting [1], the activation at 0.1 µM stood at 0%. For the same compound, the activation at 1 µM under setting [2] is 6%. Besides, under setting [3], the activation at 10 µM is 33%.

With `C=CCNC[C@H]1c2ncccc2O[C@@H]1C` [Example 71], the activation at 0.1 µM under setting [1] worked out at 0%. Further, the activation at 1 µM under setting [2] was found to be 6%. Also, the activation at 10 µM under setting [3] was 29%.

Take `COCCNC[C@H]1c2ncccc2O[C@@H]1C` [Example 73]: the activation at 0.1 µM under setting [1] came to 0%. Also, under setting [2], the activation at 1 µM came out at 9%. The activation at 10 µM under setting [3] amounted to 40%.

Regarding `CC[C@@H]1C[C@@H](CN)c2ncccc2O1` (racemic) [Example 61], the activation at 0.1 µM under setting [1] is 2%. The activation at 1 µM under setting [2] is 22%. Moreover, the activation at 10 µM under setting [3] came out at 66%.

For `Cc1ccc2c(n1)[C@H](CN)C1(CC1)O2` (single isomer, unassigned) [Example 101, rel-1-[(3'S)-5′-methyl-3′H-spiro[cyclopropane-1,2′-furo[3,2-b]pyridine]-3′-yl]methanamine dihydrochloride], the activation at 0.1 µM under setting [1] was 62%. Besides, the activation at 1 µM under setting [2] worked out at 79%. Moreover, the activation at 10 µM under setting [3] was found to be 84%.

Regarding `C[C@H]1COc2cccnc2[C@H]1CN` (stereo in doubt) [Example 3, rel-1-[(3R,4R)-3-methyl-3,4-dihydro-2H-pyrano[3,2-b]pyridin-4-yl]methanamine dihydrochloride], under setting [1], the activation at 0.1 µM turned out to be 0%. For the same compound, under setting [2], the activation at 1 µM turned out to be 1%. In addition, the activation at 10 µM under setting [3] was 9%.

Consider `NC[C@H]1c2ncccc2O[C@@H]1CO` (racemic) [Example 26], for which the activation at 0.1 µM under setting [1] came to 0%. Besides, the activation at 1 µM under setting [2] was 25%. Under setting [3], the activation at 10 µM was found to be 73%.

Consider `CNC[C@@H]1C[C@@H](C)Oc2cccnc21` (racemic) [Example 7], for which, under setting [1], the activation at 0.1 µM amounted to 17%. In addition, under setting [2], the activation at 1 µM worked out at 56%. For the same compound, the activation at 10 µM under setting [3] was found to be 75%.

Consider `CCCNC[C@H]1c2ncccc2O[C@@H]1C` [Example 72], for which, under setting [1], the activation at 0.1 µM stood at 0%. In addition, under setting [2], the activation at 1 µM was 4%. Besides, under setting [3], the activation at 10 µM was found to be 23%.

As to `Cc1ccc2c(n1)[C@H](CN)C(C)(C)O2` (single isomer, unassigned) [Example 105, dihydrochloride], the activation at 0.1 µM under setting [1] was determined as 64%. Further, the activation at 1 µM under setting [2] turned out to be 77%. The activation at 10 µM under setting [3] came out at 79%.

For the compound `Cc1ccc2c(n1)[C@@H](CN)C1(CC1)O2` (single isomer, unassigned) [Example 100, rel-1-[(3′R)-5′-methyl-3′H-spiro[cyclopropane-1,2′-furo[3,2-b]pyridine]-3′-yl]methanamine dihydrochloride], under setting [1], the activation at 0.1 µM was 0%. Besides, the activation at 1 µM under setting [2] is 17%. Further, under setting [3], the activation at 10 µM amounted to 50%.

As for `C[C@H]1Oc2cc(C(F)(F)F)cnc2[C@@H]1CN` [Example 31], the activation at 0.1 µM under setting [1] turned out to be 1%. For the same compound, the activation at 1 µM under setting [2] came to 3%. Also, under setting [3], the activation at 10 µM came out at 12%.

Regarding `CC1(C)COc2cccnc2C1CN` (stereo not drawn) [Example 53], the activation at 0.1 µM was determined as 0%, the activation at 1 µM stood at 3% and the activation at 10 µM was 18%.

On to `NCC1c2nc(F)ccc2OC12CC2` (stereo not drawn) [Example 82], for which the activation at 0.1 µM under setting [1] stood at 51%. Besides, the activation at 1 µM under setting [2] is 92%. Moreover, the activation at 10 µM under setting [3] was found to be 101%.

With `NCC1CCc2c(OC3CCC3)ccnc21` (racemic) [Example 91, rac-1-[4-(cyclobutyloxy)-6,7-dihydro-5H-cyclopenta[b]pyridin-7-yl]methanamine dihydrochloride], the activation at 0.1 µM under setting [1] amounted to 0%. Moreover, the activation at 1 µM under setting [2] amounted to 14%. For the same compound, the activation at 10 µM under setting [3] was found to be 49%.
